Results on nine compounds are retold here after patent publication US12421216B2, “Voruciclib polymorphs and methods of making and using thereof” (MEI PHARMA, INC., priority 2019, dated 2025).

For data set [1] the following is noted: acid counterion; cited from earlier work.
Data set [2] is described as follows: Solubility of salts in water and in 0.2 M phosphate buffer pH 6 at 37° C. after 4 hours (HPLC-DAD). Type of data set: physicochemical. Particulars: 37° C., 4 hours, listed as Voruciclib HCl salt. Here is the method: Two sets of solubility experiments were performed. […] In the second set of solubility experiments about 5 mg of the salt was weighed in a standard 1.8 mL HPLC vial. Subsequently, aliquots of 200 μL of aqueous medium were added up to a maximum of 1 mL, while making observations regarding the dissolution behavior of the salts. The vials were left to equilibrate at 37° C. with continuous stirring (see Table 25 for details). After 4 hours the solids were separated from the liquid by centrifugation and the liquid phase was further filtrated through a […] PTFE filter to remove any particulate matter. The concentration of solute was determined by HPLC-DAD analysis. A calibration curve was made from two independent stock solutions of voruciclib prepared in acetonitrile/water. The pH was recorded at the end of the equilibration time.

Data set [3] in a line: Thermodynamic solubility of voruciclib HCl by the shake-flask method (HPLC). In kind it is physicochemical. The note with it: RT; for Solubility classification: USP29.

Where a name gives a salt, the structure may show the parent alone. Read-outs that look alike come from different tables or passages of the source.

On to `O=C(O)C[C@H](O)C(=O)O` [(−)-L-Malic], for which, in data set [1], the pka1 is on record as 3.5 and the pka2 is 5.1.

As to `O=C(O)[C@H](O)[C@@H](O)[C@H](O)[C@H](O)CO` [D-Gluconic], in data set [1], the pka1 is listed as 3.8.

On to `O=C(O[C@@H](C(=O)O)[C@@H](OC(=O)c1ccccc1)C(=O)O)c1ccccc1` [Dibenzoyl-L-tartaric], for which the pka1 in data set [1] was 1.9.

For the compound `O=S(=O)(O)CCS(=O)(=O)O` [Ethane-1,2-disulfonic], in data set [1], the pka1 was −2.1 and the pka2 was −1.5.

Take `CCS(=O)(=O)O` [Ethanesulfonic]: in data set [1], the pka1 is 2.1.

`O=C(O)CCCC(=O)O` [Glutaric]: in data set [1], the pka1 was 4.3 and the pka2 was 5.3.

With `O=S(=O)(O)c1cccc2c(S(=O)(=O)O)cccc12` [Naphthalene-1,5-disulfonic], in data set [1], the pka1 is −3.4 and the pka2 is on record as −2.6.

As for `O=S(=O)(O)c1ccc2ccccc2c1` [Naphthalene-2-sulfonic], in data set [1], the pka1 is recorded as 0.2.

For orientation: solubility means how much of the substance goes into solution per volume. On to `CN1CC[C@@H](c2c(O)cc(O)c3c(=O)cc(-c4ccc(C(F)(F)F)cc4Cl)oc23)[C@@H]1CO` [voruciclib HCl], for which the “Solubility pH 6” value in data set [2] (0.2M phosphate buffer (pH 6)) came out at 0.01 mg/mL. Moreover, the Solubility water entry in data set [2] (water) is “Gel”. Besides, the solubility at 24 h in data set [3] (1,2-dimethoxyethane, organic solvent or mixture, thermodynamic from solid, 1,2-Dimethoxyethane, 24 h, amorphous API, HPLC, read-out: Solubility) was 1600 µg/mL; in data set [3] (1,4-dioxane, organic solvent or mixture, thermodynamic from solid, 1,4-Dioxane, 24 h, amorphous API, HPLC, read-out: Solubility), 400 µg/mL; in data set [3] (1-propanol, organic solvent or mixture, thermodynamic from solid, 1-Propanol, 24 h, amorphous API, HPLC, read-out: Solubility), 34000 µg/mL; in data set [3] (2-butanol, organic solvent or mixture, thermodynamic from solid, 2-Butanol, 24 h, amorphous API, HPLC, read-out: Solubility), 10000 µg/mL; in data set [3] (2-methyltetrahydrofuran, organic solvent or mixture, thermodynamic from solid, 2-Methyltetrahydrofuran, 24 h, amorphous API, HPLC, read-out: Solubility) it was 1600 µg/mL; in data set [3] (2-propanol, organic solvent or mixture, thermodynamic from solid, 2-Propanol, 24 h, amorphous API, HPLC, read-out: Solubility), 19000 µg/mL. In addition, the solubility at 24 h in data set [3] (acetone, organic solvent or mixture, thermodynamic from solid, Acetone, 24 h, amorphous API, HPLC, read-out: Solubility) is 3500 µg/mL; in data set [3] (acetonitrile, organic solvent or mixture, thermodynamic from solid, Acetonitrile, 24 h, amorphous API, HPLC, read-out: Solubility), 900 µg/mL; in data set [3] (anisole, organic solvent or mixture, thermodynamic from solid, Anisole, 24 h, amorphous API, HPLC, read-out: Solubility), below 100 µg/mL; in data set [3] (chloroform, organic solvent or mixture, thermodynamic from solid, Chloroform, 24 h, amorphous API, HPLC, read-out: Solubility), 3100 µg/mL; in data set [3] (cumene, organic solvent or mixture, thermodynamic from solid, Cumene, 24 h, amorphous API, HPLC, read-out: Solubility), below 100 µg/mL; in data set [3] (cyclohexane, organic solvent or mixture, thermodynamic from solid, Cyclohexane, 24 h, amorphous API, HPLC, read-out: Solubility), below 100 µg/mL. Moreover, the solubility at 24 h is 500 µg/mL in data set [3] (dichloromethane, organic solvent or mixture, thermodynamic from solid, Dichloromethane, 24 h, amorphous API, HPLC, read-out: Solubility); 200 µg/mL in data set [3] (diethyl ether, organic solvent or mixture, thermodynamic from solid, Diethyl ether, 24 h, amorphous API, HPLC, read-out: Solubility); below 100 µg/mL in data set [3] (diisopropyl ether, organic solvent or mixture, thermodynamic from solid, Diisopropyl ether, 24 h, amorphous API, HPLC, read-out: Solubility); 62000 µg/mL in data set [3] (ethanol, organic solvent or mixture, thermodynamic from solid, Ethanol, 24 h, amorphous API, HPLC, read-out: Solubility); 800 µg/mL in data set [3] (ethyl acetate, organic solvent or mixture, thermodynamic from solid, Ethyl acetate, 24 h, amorphous API, HPLC, read-out: Solubility); 1600 µg/mL in data set [3] (ethyl formate, organic solvent or mixture, thermodynamic from solid, Ethyl formate, 24 h, amorphous API, HPLC, read-out: Solubility). Moreover, the solubility at 24 h is below 100 µg/mL in data set [3] (hexanes, organic solvent or mixture, thermodynamic from solid, Hexanes, 24 h, amorphous API, HPLC, read-out: Solubility); 500 µg/mL in data set [3] (isopropyl acetate, organic solvent or mixture, thermodynamic from solid, Isopropyl acetate, 24 h, amorphous API, HPLC, read-out: Solubility); 230000 µg/mL in data set [3] (methanol, organic solvent or mixture, thermodynamic from solid, Methanol, 24 h, amorphous API, HPLC, read-out: Solubility); 1100 µg/mL in data set [3] (methyl ethyl ketone, organic solvent or mixture, thermodynamic from solid, Methyl ethyl ketone, 24 h, amorphous API, HPLC, read-out: Solubility); 700 µg/mL in data set [3] (methyl isobutyl ketone, organic solvent or mixture, thermodynamic from solid, Methyl isobutyl ketone, 24 h, amorphous API, HPLC, read-out: Solubility); below 100 µg/mL in data set [3] (n-heptane, organic solvent or mixture, thermodynamic from solid, n-Heptane, 24 h, amorphous API, HPLC, read-out: Solubility). Besides, the solubility at 24 h in data set [3] (n-hexane, organic solvent or mixture, thermodynamic from solid, n-Hexane, 24 h, amorphous API, HPLC, read-out: Solubility) was below 100 µg/mL; in data set [3] (p-xylene, organic solvent or mixture, thermodynamic from solid, p-Xylene, 24 h, amorphous API, HPLC, read-out: Solubility), below 100 µg/mL; in data set [3] (solvents other than DMA, DMF, DMSO and alcohols, organic solvent or mixture, thermodynamic from solid, solvents other than DMA, DMF, DMSO and alcohols, read-out: Solubility in all the other solvents) it was below 10000 µg/mL; in data set [3] (tert-butyl methyl ether, organic solvent or mixture, thermodynamic from solid, tert-Butyl methyl ether, 24 h, amorphous API, HPLC, read-out: Solubility) it was 100 µg/mL; in data set [3] (tetrahydrofuran, organic solvent or mixture, thermodynamic from solid, Tetrahydrofuran, 24 h, amorphous API, HPLC, read-out: Solubility) it was 9600 µg/mL; in data set [3] (toluene, organic solvent or mixture, thermodynamic from solid, Toluene, 24 h, amorphous API, HPLC, read-out: Solubility), 100 µg/mL. In addition, the “solubility” value in data set [3] (1-Propanol, 24 h, amorphous API, HPLC) is 34500 µg/mL; in data set [3] (2-Butanol, 24 h, amorphous API, HPLC), 10200 µg/mL; in data set [3] (2-Propanol, 24 h, amorphous API, HPLC), 18800 µg/mL; in data set [3] (Dimethyl sulfoxide, amorphous API, no suspension obtained, concentration of the solution after first aliquot), above 400000 µg/mL; in data set [3] (Ethanol, 24 h, amorphous API, HPLC), 62000 µg/mL; in data set [3] (Methanol, 24 h, amorphous API, HPLC), 229500 µg/mL. The “solubility” value is above 400000 µg/mL in data set [3] (N,N-Dimethylacetamide, amorphous API, no suspension obtained, concentration of the solution after first aliquot); above 400000 µg/mL in data set [3] (N,N-Dimethylformamide, amorphous API, no suspension obtained, concentration of the solution after first aliquot); above 400000 µg/mL in data set [3] (N,N-dimethylacetamide, organic solvent or mixture, thermodynamic from solid, N,N-Dimethylacetamide, amorphous API, no suspension obtained, concentration of the solution after first aliquot, read-out: Solubility); above 400000 µg/mL in data set [3] (N,N-dimethylformamide, organic solvent or mixture, thermodynamic from solid, N,N-Dimethylformamide, amorphous API, no suspension obtained, concentration of the solution after first aliquot, read-out: Solubility); above 400000 µg/mL in data set [3] (dimethyl sulfoxide, organic solvent or mixture, thermodynamic from solid, Dimethyl sulfoxide, amorphous API, no suspension obtained, concentration of the solution after first aliquot, read-out: Solubility). The Solubility classification entry in data set [3] (2-Propanol, 2-Butanol) is recorded as “Sparingly soluble”; in data set [3] (Acetonitrile, Ethyl acetate, Methyl isobutyl ketone, Dichloromethane, Isopropyl acetate, 1,4-Dioxane, Diethyl ether, tert-Butyl methyl ether, Toluene), “Very slightly soluble”; in data set [3] (Anisole, p-Xylene, Diisopropyl ether, Cumene, Cyclohexane, n-Hexane, n-Heptane, Hexanes) it was “Practically insoluble”; in data set [3] (Ethanol, 1-Propanol) it was “Soluble”; in data set [3] (N,N-Dimethylacetamide, Dimethyl sulfoxide, N,N-Dimethylformamide, Methanol), “Freely soluble”; in data set [3] (Tetrahydrofuran, Acetone, Chloroform, 1,2-Dimethoxyethane, 2-Methyltetrahydrofuran, Ethyl formate, Methyl ethyl ketone), “Slightly soluble”.
